Results as given in patent US20220008537A1, “COMPOUNDS FOR PHOTODYNAMIC THERAPY AND RELATED USES” (GEORGIA STATE UNIVERSITY RESEARCH FOUNDATION, INC., priority 2018, published 2022).

Experiments:
pUC19 plasmid DNA = experiment: DNA photocleavage inhibition induced by chemical additives; format: biochemical; settings: 20 μM dye, 38 μM bp pUC19, 830 nm 300 mW LED laser, pH 7.0
Description: Individual DNA cleavage reactions containing 5 μM to 50 μM concentrations of cyanine dye, 38 μM bp of pUC19 plasmid, and 10 mM of sodium phosphate pH 7.0 were prepared in a total volume of 40 μL. In order maintain reaction temperature at 10° C., 22° C., or 37° C., the samples were placed in a thermometer-fitted metal block that was either heated, kept at room temperature, or immersed in an ice bath. While monitoring temperature with the thermometer, the samples were either kept in the dark or were irradiated at time interval ranging from 5 min to 120 min using a light emitting diode (LED) laser (LaserLands) with a peak emission wavelength of either 532 nm (100 mW), 808 nm (300 mW), or 830 nm (300 mW). At the end of the irradiation time interval, a total of 3 μL of electrophoresis loading buffer containing 15.0% (w/v) ficoll and 0.025% (w/v) bromophenol blue) was added to each reaction and 20 μL of the resulting solution was added to one of the wells of 1.5% agarose gel stained with ethidium bromide (0.5 μg/mL, final concentration). Completely loaded gels were then electrophoresed for 60 min at 105 V in a Bio-Rad Laboratories gel box using 1×tris-acetate-EDTA (TAE) containing 0.5 μg/mL ethidium bromide as the running buffer. Electrophoresed gels were visualized at 302 nm with a VWR Scientific LM-20E transilluminator and then photographed with a UVP PhotoDoc-ItTM Imaging System. For quantitating the gels, ImageQuant version 5.2 software was employed. The DNA photocleavage yields were then calculated using the formula: Percent Photocleavage=[(Linear+Nicked DNA)/(Linear+Nicked+Supercoiled DNA)]×100. In an argon-purged glove box, 40 μL photocleavage reactions containing 10 mM sodium phosphate buffer pH 7.0, 20 μM of cyanine dye, and 38 μM bp of pUC19 plasmid were prepared from solutions bubbled with argon and then irradiated at 830 nm for 30 min The procedure was repeated using aerated solutions in a glove box purged with air. A second set of reactions containing 10 mM of sodium phosphate buffer pH 7.0, 38 μM bp pUC19 plasmid DNA and 20 μM of dye were prepared in the presence and absence of either 100 mM of the singlet oxygen scavenger sodium azide, 100 mM of the hydroxyl radical scavenger sodium benzoate, or 84% D2O (v/v). […] After the irradiation, the above DNA reactions were electrophoresed on 1.5% non-denaturing agarose gels, visualized, and quantitated as just described. The percent change in DNA photocleavage was then calculated using the formula, where additive stands for either argon, sodium azide, sodium benzoate, or D2O: Percent Change in Cleavage=[(% Total of Linear and Nicked […] additive-% Total of Linear and Nicked DNAwithout additive)/(% Total of Linear and Nicked DNAwithout additive)]×100. […]

| melting point | Structure (SMILES) | Photocleavage inhibition (%) (pUC19 plasmid DNA; Reagent Argon (targets 1O2 & •OH)) | Photocleavage inhibition (%) (pUC19 plasmid DNA; Reagent D2O 84% (v/v) (target 1O2)) | Photocleavage inhibition (%) (pUC19 plasmid DNA; Reagent Sodium azide 100 mM (targets 1O2 > •OH)) | Photocleavage inhibition (%) (pUC19 plasmid DNA; Reagent Sodium benzoate 100 mM (target •OH)) |
| --- | --- | --- | --- | --- | --- |
| > 260 °C | CN1C=C/C(=C/C=C(Cl)/C=C/c2cc[n+](C)c3ccccc23)c2ccccc21.[I-] [Dye 5, 4-((1E,3Z)-3-chloro-5-((Z)-1-methylquinolin-4(1H)-ylidene)penta-1,3-dien-1-yl)-1-methylquinolin-1-ium iodide] | 67 ± 3 | 6 ± 1 | 26 ± 3 | 31 ± 2 |
| 239 °C (dec.) | CN1C=C/C(=C/C=C/C=C/c2cc[n+](C)c3ccccc23)c2ccccc21.[I-] [Dye 4, 1-methyl-4-((1E,3E)-5-((Z)-1-methylquinolin-4(1H)-ylidene)penta-1,3-dien-1-yl)quinolin-1-ium iodide] |  |  |  |  |
